Source: PubChem BioAssay (NCI)
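1) Cells in 96-well plates. 2) Compound, 48 h, 5 concentrations. 3) Linear interpolation between surrounding doses. 4) Unreached endpoint = highest concentration. GI50 marks 50% less growth. TGI marks complete inhibition of growth.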

Legend:
Assay in all cases: NCI-60 cell line screen, 48 h
[1] = system: OVCAR-4 ovarian
[2] = system: U251 CNS
[3] = system: MALME-3M melanoma
[4] = system: HOP-92 NSCLC
[5] = system: NCI/ADR-RES ovarian
[6] = system: SW-620 colon
[7] = system: SR leukemia
[8] = system: MDA-MB-435
[9] = system: SK-OV-3 ovarian
[10] = system: EKVX NSCLC
[11] = system: SK-MEL-2 melanoma
[12] = system: 786-0 renal
[13] = system: A498 renal
[14] = system: K-562 leukemia
[15] = system: SK-MEL-5 melanoma
[16] = system: SF-268 CNS
[17] = system: T-47D breast
[18] = system: SN12C renal
[19] = system: MOLT-4 leukemia
[20] = system: HOP-62 NSCLC
[21] = system: A549 NSCLC
[22] = system: SNB-19 CNS
[23] = system: HCT-116 colon
[24] = system: NCI-H226 lung
[25] = system: SNB-75 CNS
[26] = system: DU-145 prostate
[27] = system: COLO 205 colon
[28] = system: HS 578T breast
[29] = system: IGROV1 ovarian
[30] = system: OVCAR-3 ovarian
[31] = system: UACC-257 melanoma
[32] = system: UACC-62 melanoma
[33] = system: TK-10 renal
[34] = system: ACHN renal
[35] = system: SF-539 CNS
[36] = system: SF-295 CNS
[37] = system: MCF7 breast
[38] = system: SK-MEL-28 melanoma
[39] = system: MDA-MB-231 breast
[40] = system: NCI-H522 lung
[41] = system: OVCAR-8 ovarian
[42] = system: RPMI-8226 leukemia
[43] = system: M14 melanoma
[44] = system: LOX IMVI melanoma
[45] = system: OVCAR-5 ovarian
[46] = system: HL-60(TB) leukemia
[47] = system: NCI-H23 lung
[48] = system: HT29 colon
[49] = system: CCRF-CEM leukemia
[50] = system: NCI-H460 lung
[51] = system: RXF 393 renal
[52] = system: PC-3 prostate
[53] = system: BT-549 breast
[54] = system: HCT-15 colon
[55] = system: KM12 colon
[56] = system: UO-31 renal
[57] = system: CAKI-1 renal
[58] = system: HCC-2998 colon

SMILES: CC(=O)Nc1ccc(C(=O)COc2cccc(/C=C3\CCc4ccccc4C3=O)c2)cc1
- GI50 [1]: 1.01 µM
- TGI [1]: 26.1 µM
- GI50 [2]: 12.4 µM
- TGI [2]: 27.8 µM
- GI50 [3]: 15.8 µM
- TGI [3]: 39.5 µM
- GI50 [4]: 15.1 µM
- TGI [4]: 60.9 µM
- GI50 [5]: 10.5 µM
- TGI [5]: 65.9 µM
- GI50 [6]: 3.65 µM
- TGI [6]: 15 µM
- GI50 [7]: 0.0802 µM
- TGI [7]: 16.7 µM
- GI50 [8]: 5.58 µM
- TGI [8]: 30 µM
- GI50 [9]: 30.1 µM
- TGI [9]: > 100 µM
- GI50 [10]: 14.3 µM
- TGI [10]: 68.7 µM
- GI50 [11]: 14.8 µM
- TGI [11]: 65.8 µM
- GI50 [12]: 26.5 µM
- TGI [12]: > 100 µM
- GI50 [13]: 53.6 µM
- TGI [13]: > 100 µM
- GI50 [14]: 2.8 µM
- TGI [14]: 12.7 µM
- GI50 [15]: 2.9 µM
- TGI [15]: 11 µM
- GI50 [16]: 19 µM
- TGI [16]: 52.4 µM
- GI50 [17]: 11 µM
- TGI [17]: 57.2 µM
- GI50 [18]: 27.6 µM
- TGI [18]: > 100 µM
- GI50 [19]: 4.3 µM
- TGI [19]: 20.9 µM
- GI50 [20]: 24 µM
- TGI [20]: 60.3 µM
- GI50 [21]: 38.1 µM
- TGI [21]: > 100 µM
- GI50 [22]: 17.4 µM
- TGI [22]: 51.7 µM
- GI50 [23]: 4.09 µM
- TGI [23]: 17.1 µM
- GI50 [24]: 16.3 µM
- TGI [24]: > 100 µM
- GI50 [25]: 13 µM
- TGI [25]: 64.7 µM
- GI50 [26]: 19.2 µM
- TGI [26]: 53 µM
- GI50 [27]: 17.2 µM
- TGI [27]: 34.5 µM
- GI50 [28]: 32.6 µM
- TGI [28]: > 100 µM
- GI50 [29]: 21.1 µM
- TGI [29]: 99.2 µM
- GI50 [30]: 17.4 µM
- TGI [30]: 39.1 µM
- GI50 [31]: 15.7 µM
- TGI [31]: 39 µM
- GI50 [32]: 12.5 µM
- TGI [32]: 32.7 µM
- GI50 [33]: 28.2 µM
- TGI [33]: > 100 µM
- GI50 [34]: 21.9 µM
- TGI [34]: 78.4 µM
- GI50 [35]: 19.2 µM
- TGI [35]: 40.2 µM
- GI50 [36]: 11.2 µM
- TGI [36]: 39.6 µM
- GI50 [37]: 2.9 µM
- TGI [37]: 19 µM
- GI50 [38]: 20.3 µM
- TGI [38]: 37.8 µM
- GI50 [39]: 18.7 µM
- TGI [39]: 85.9 µM
- GI50 [40]: 6.55 µM
- TGI [40]: 32.8 µM
- GI50 [41]: 23.6 µM
- TGI [41]: > 100 µM
- GI50 [42]: 1.82 µM
- TGI [42]: 4.97 µM
- GI50 [43]: 14.4 µM
- TGI [43]: 34 µM
- GI50 [44]: 6.59 µM
- TGI [44]: 25.4 µM
- GI50 [45]: 19.6 µM
- TGI [45]: 36.3 µM
- GI50 [46]: 4.4 µM
- TGI [46]: 22.7 µM
- GI50 [47]: 14.4 µM
- TGI [47]: 43.4 µM
- GI50 [48]: 18.7 µM
- TGI [48]: > 100 µM
- GI50 [49]: 2.31 µM
- TGI [49]: 6.09 µM
- GI50 [50]: 16.1 µM
- TGI [50]: 37.1 µM
- GI50 [51]: 24.8 µM
- TGI [51]: 57.8 µM
- GI50 [52]: 10.1 µM
- TGI [52]: 47.2 µM
- GI50 [53]: 17.6 µM
- TGI [53]: 54.2 µM
- GI50 [54]: 11.2 µM
- TGI [54]: 32 µM
- GI50 [55]: 4.92 µM
- TGI [55]: 18.1 µM
- GI50 [56]: 15.5 µM
- TGI [56]: 64 µM
- GI50 [57]: 21 µM
- TGI [57]: 77.1 µM
- GI50 [58]: 17.7 µM
- TGI [58]: 32.2 µM
